{"source": "patent US8877483B2", "about": "“Dioxin elimination promoter” (priority 2002, dated 2014)", "tested_on": "liver cytochrome P450", "test": "EPR spectra of rat liver after oral administration of PCB126 (construction of model animals)", "assay_type": "in vivo", "conditions": "rats, single forced oral dose 0, 0.3, 3, 30 or 100 μg/kg bw in corn oil, liver isolated 24 hour after administration; FIG. 1", "description": "When the EPR measurement is carried out with rat liver as an experimental animal, the resonance absorption of an iron atom contained in cytochrome P450 protein is observed at a position of g=2.40. When dioxin were administered to a rat, an abnormal resonance absorption which is not observed in untreated case appears as a signal at a position of g=2.49, in addition to the normal resonance absorptions. Since the intensity of the abnormal signal becomes higher according to increase of an amount of dioxins administered, it can be a living body index showing a degree of pollution.\nAs laboratory animals, rats to which PCB 126 (3,3′,4,4′,5-pentachlorobiphenyl) had been administered were prepared. The rats were 6-week-old Sprangue-Dawley (purchased from Nippon Charles River). After acclimation rearing for about one week, they forcedly administered with solutions containing an adequate concentration of PCB 126 (manufactured by Wellington Laboratories; purity: 99.99% or more) dissolved in commercially available corn oil (manufactured by Hayashi Chemicals) so that the amount of cPCB was 0 (control), 0.3, 3, 30 or 100 μg/kg body weight (bw) in the same amount of corn oil through a probe. PCB-administered rats were euthanized with ether 24 hour after the administration. […] Then, tissue fragments were analyzed by an EPR measurement method. […]"}
{"smiles": "Clc1ccc(-c2cc(Cl)c(Cl)c(Cl)c2)cc1Cl", "note": "[cPCB, 3,3′,4,4′,5-pentachlorobiphenyl]", "values": [{"measurement": "abnormal EPR signal at g=2.49 in liver tissue fragments", "result": "intensity varies depending on the administered amount"}]}
